Data: patent publication US8404643B2, “Metastin derivatives and use thereof” (priority 2005, dated 2013)
Numbered stars: 1 amine (or outer) side, 2 acyl side, 3 side chain; on linkers, the order of the positions; unused ones are H or OH. Square brackets hold non-standard residues; d marks the D form. Peptide text beside a SMILES is read from it. Nip(3R) = O=C([C@@H]1CCCN([*:1])C1)[*:2]; Arg(Me) = CNC(=N)NCCC[C@H](N)C(=O)O; Hyp = O=C(O)[C@@H]1C[C@@H](O)CN1; NMeA = CN[C@@H](C)C(=O)O; Thz = O=C(O)[C@@H]1CSCN1; dDap = NC[C@@H](N)C(=O)O; dNMeA = CN[C@H](C)C(=O)O; 2Abz = Nc1ccccc1C(=O)O; Aib = CC(C)(N)C(=O)O; azaGly = NNC(=O)O; Sar = CNCC(=O)O

molecular target: T1, hOT7T175 (Homo sapiens, UniProt Q969F8); assay: Assay for intracellular Ca ion level-increasing activity using FLIPR; assay type: cell-based; settings: hOT7T175/CHO cells, relative to Metastin (1-54)
T1 construct: expressed in transfected cells
Experimental: In accordance with the method described in JPA 2000-312590, the intracellular Ca ion level-increasing activity was measured using FLIPR.
The stable expression cell line hOT7T175 was obtained by transfection of the expression plasmid pAK-rOT175 for animal cells into CHO/dhfr^− cells, using CellPhect Transfection Kit (Amersham Pharmacia Biotech, Inc.). First, 240 μL of Buffer A (attached to CellPhect Transfection Kit) was added to 9.6 μg of plasmid DNA dissolved in 240 μL of distilled water followed by stirring. After the mixture was settled for 10 minutes, 480 μL of Buffer B (attached to CellPhect Transfection Kit) was added to the mixture, which was vigorously stirred to form liposomes containing the DNA. Then, 4×10^5 CHO/dhfr^− cells (obtained from ATCC) were inoculated on a 60 mm Petri dish. After culturing the cells in Ham's F-12 medium (Nissui Seiyaku Co., Ltd.) supplemented with 10% fetal bovine serum (BIO WHITTAKER, Inc.) at 37° C. for 2 days in 5% carbon dioxide gas, […] of the liposomes were dropwise added to the cells on the Petri dish. After culturing the cells at 37° C. for 6 hours in 5% carbon dioxide gas, the cells were washed twice with serum-free Ham's F-12 medium and 3 mL of 15% glycerol was added to the cells on the Petri dish followed by treatment for 2 minutes. The cells were again washed twice with serum-free Ham's F-12 medium followed by incubation in Ham's F-12 medium supplemented with 10% fetal bovine serum at 37° C. for 15 hours in 5% carbon dioxide gas. The cells were dispersed by trypsin treatment to recover from the Petri dish. The recovered cells were inoculated on a 6-well plate in 1.25×10^4 cells/well and incubation was initiated at 37° C. in Dulbecco's modified Eagle medium (DMEM) medium (Nissui Seiyaku Co., Ltd.) containing 10% dialyzed fetal bovine serum (JRH BIOSCIENCES, Inc.) in 5% carbon dioxide gas. The plasmid-transfected CHO transformants grew in the medium but the non-transfected cells gradually died, accordingly the medium was exchanged on Days 1 and 2 after the initiation of incubation to remove the cells died. Approximately 20 colonies of the CHO transformants that kept growing on Days 8 to 10 after the incubation were isolated. From the cells in these colonies, cells showing high reactivity with the ligand peptide metastin (hereinafter merely referred to as hOT7T175/CHO) were selected to provide for the following experiment.
The intracellular Ca ion level-increasing activity of the synthetic peptide in hOT7T175/CHO was determined using FLIPR (Molecular Devices, Inc.).
hOT7T175/CHO was subcultured in DMEM supplemented with 10% dialyzed fetal bovine serum (hereinafter abbreviated as dFBS) (hereinafter referred to as 10% dFBS/DMEM) and provided for the experiment. The hOT7T175/CHO was suspended in 10% dFBS-DMEM in 15×10^4 cells/ml. The suspension was inoculated on a 96-well plate for FLIPR (Black Plate Clear Bottom, Coster, Inc.) at 200 μl/well (3.0×10^4 cells/200 μL/well), followed by incubation at 37° C. overnight in a 5% CO2 incubator (hereinafter referred to as the cell plate). Then, 21 ml of HANKS/HBSS (9.8 g of HANKS, 0.35 g of sodium hydrogencarbonate, 20 ml of 1M HEPES; after adjusting the pH to 7.4 with 1N sodium hydroxide, the mixture was sterilized by filtration), 210 μl of 250 mM Probenecid and 210 μl of fetal bovine serum (FBS) (HANKS/HBSS-Probenecid-FBS) were mixed.
Furthermore, 2 vials of Fluo3-AM (50 μg/vial) were dissolved in 21 μL of dimethylsulfoxide and 21 μL of 20% Pluronic acid. The resulting solution was added to and mixed with 10 ml of the HANKS/HBSS-Probenecid-FBS described above. After the culture medium was removed, the mixture was dispensed onto the cell plate in 100 μl each/well, followed by incubation at 37° C. for an hour in a 5% CO2 incubator (pigment loading). The peptide was dissolved in dimethylsulfoxide in 1×10^−3 M. The peptide solution was diluted with HANKS/HBSS containing 2.5 mM Probenecid, 0.2% BSA and 0.1% CHAPS. […]

T1 sequence (Q969F8 whole entry L364H): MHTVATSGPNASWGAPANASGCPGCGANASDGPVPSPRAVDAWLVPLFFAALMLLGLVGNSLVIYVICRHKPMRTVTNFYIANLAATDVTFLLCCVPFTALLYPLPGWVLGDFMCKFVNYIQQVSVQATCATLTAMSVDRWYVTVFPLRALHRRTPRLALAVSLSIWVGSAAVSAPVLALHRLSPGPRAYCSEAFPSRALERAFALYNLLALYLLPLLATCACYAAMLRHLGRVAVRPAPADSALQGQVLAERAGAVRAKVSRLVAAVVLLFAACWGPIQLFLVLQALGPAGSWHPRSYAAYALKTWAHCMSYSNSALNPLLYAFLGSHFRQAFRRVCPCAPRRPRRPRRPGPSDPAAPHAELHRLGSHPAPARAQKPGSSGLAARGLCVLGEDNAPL

Point of comparison: `CNC(=N)NCCC[C@H](NC(=O)[C@H](CC(C)C)NC(=O)NNC(=O)[C@H](Cc1ccccc1)NC(=O)[C@@H](NC(=O)[C@H](CC(N)=O)NC(=O)[C@@H]1CCCN(C(=O)[C@@H](Cc2ccc(O)cc2)NC(C)=O)C1)[C@@H](C)O)C(=O)N[C@@H](Cc1c[nH]c2ccccc12)C(N)=O` [Compound No. 722, Ac-D-Tyr-Pic(3)-Asn-Thr-Phe-AzaGly-Leu-Arg(Me)-Trp-NH2] (Ac-[dY][Nip(3R)]NTF[azaGly]L[Arg(Me)]W-NH2), “Specific Activity: intracellular Ca ion level-increasing activity [specific activity to Metastin (1-54)]” value 2.2. Against it:
- CNC(=N)NCCC[C@H](NC(=O)[C@H](CC(C)C)NC(=O)NNC(=O)[C@H](Cc1ccccc1)NC(=O)[C@@H](NC(=O)[C@H](CC(N)=O)NC(=O)[C@@H]1C[C@@H](O)CN1C(=O)[C@@H](Cc1ccc(O)cc1)NC(C)=O)[C@@H](C)O)C(=O)N[C@@H](Cc1c[nH]c2ccccc12)C(N)=O [Compound No. 723, Ac-D-Tyr-Hyp-Asn-Thr-Phe-AzaGly-Leu-Arg(Me)-Trp-NH2] (Ac-[dY][Hyp]NTF[azaGly]L[Arg(Me)]W-NH2) — lower, 2.0
- CNC(=N)NCCC[C@H](NC(=O)[C@H](CC(C)C)NC(=O)NNC(=O)[C@H](Cc1ccccc1)NC(=O)[C@@H](NC(=O)[C@H](CC(N)=O)NC(=O)[C@@H]1CSCN1C(=O)[C@@H](Cc1ccc(O)cc1)NC(C)=O)[C@@H](C)O)C(=O)N[C@@H](Cc1c[nH]c2ccccc12)C(N)=O [Compound No. 724, Ac-D-Tyr-Thz-Asn-Thr-Phe-AzaGly-Leu-Arg(Me)-Trp-NH2] (Ac-[dY][Thz]NTF[azaGly]L[Arg(Me)]W-NH2) — lower, 1.4
- CNC(=N)NCCC[C@H](NC(=O)[C@H](CC(C)C)NC(=O)NNC(=O)[C@H](Cc1ccccc1)NC(=O)[C@@H](NC(=O)[C@H](CC(N)=O)NC(=O)[C@H](C)N(C)C(=O)[C@@H](Cc1ccc(O)cc1)NC(C)=O)[C@@H](C)O)C(=O)N[C@@H](Cc1c[nH]c2ccccc12)C(N)=O [Compound No. 725, Ac-D-Tyr-NMeAla-Asn-Thr-Phe-AzaGly-Leu-Arg(Me)-Trp-NH2] (Ac-[dY][NMeA]NTF[azaGly]L[Arg(Me)]W-NH2) — higher, 2.7
- CNC(=N)NCCC[C@H](NC(=O)[C@H](CC(C)C)NC(=O)NNC(=O)[C@H](Cc1ccccc1)NC(=O)[C@@H](NC(=O)[C@H](CC(N)=O)NC(=O)CNC(=O)[C@@H](Cc1ccc(O)cc1)NC(C)=O)[C@@H](C)O)C(=O)N[C@@H](Cc1c[nH]c2ccccc12)C(N)=O [Compound No. 726, Ac-D-Tyr-Gly-Asn-Thr-Phe-AzaGly-Leu-Arg(Me)-Trp-NH2] (Ac-[dY]GNTF[azaGly]L[Arg(Me)]W-NH2) — higher, 3.1
- CNC(=N)NCCC[C@H](NC(=O)[C@H](CC(C)C)NC(=O)NNC(=O)[C@H](Cc1ccccc1)NC(=O)[C@@H](NC(=O)[C@H](CC(N)=O)NC(=O)C(C)(C)NC(=O)[C@@H](Cc1ccc(O)cc1)NC(C)=O)[C@@H](C)O)C(=O)N[C@@H](Cc1c[nH]c2ccccc12)C(N)=O [Compound No. 727, Ac-D-Tyr-Aib-Asn-Thr-Phe-AzaGly-Leu-Arg(Me)-Trp-NH2] (Ac-[dY][Aib]NTF[azaGly]L[Arg(Me)]W-NH2) — lower, 1.5
- CNC(=N)NCCC[C@H](NC(=O)[C@H](CC(C)C)NC(=O)NNC(=O)[C@H](Cc1ccccc1)NC(=O)[C@@H](NC(=O)[C@H](CC(N)=O)NC(=O)c1ccccc1NC(=O)[C@@H](Cc1ccc(O)cc1)NC(C)=O)[C@@H](C)O)C(=O)N[C@@H](Cc1c[nH]c2ccccc12)C(N)=O [Compound No. 728, Ac-D-Tyr-Abz(2)-Asn-Thr-Phe-AzaGly-Leu-Arg(Me)-Trp-NH2] (Ac-[dY][2Abz]NTF[azaGly]L[Arg(Me)]W-NH2) — higher, 3.2
- CNC(=N)NCCC[C@H](NC(=O)[C@H](CC(C)C)NC(=O)NNC(=O)[C@H](Cc1ccccc1)NC(=O)[C@@H](NC(=O)[C@H](CC(N)=O)NC(=O)CN(C)C(=O)[C@@H](Cc1ccc(O)cc1)NC(C)=O)[C@@H](C)O)C(=O)N[C@@H](Cc1c[nH]c2ccccc12)C(N)=O [Compound No. 731, Ac-D-Tyr-Sar-Asn-Thr-Phe-AzaGly-Leu-Arg(Me)-Trp-NH2] (Ac-[dY][Sar]NTF[azaGly]L[Arg(Me)]W-NH2) — higher, 8.8
- CNC(=N)NCCC[C@H](NC(=O)[C@H](CC(C)C)NC(=O)NNC(=O)[C@H](Cc1ccccc1)NC(=O)[C@@H](NC(=O)[C@H](CC(N)=O)NC(=O)[C@@H](C)N(C)C(=O)[C@@H](Cc1ccc(O)cc1)NC(C)=O)[C@@H](C)O)C(=O)N[C@@H](Cc1c[nH]c2ccccc12)C(N)=O [Compound No. 732, Ac-D-Tyr-D-NMeAla-Asn-Thr-Phe-AzaGly-Leu-Arg(Me)-Trp-NH2] (Ac-[dY][dNMeA]NTF[azaGly]L[Arg(Me)]W-NH2) — higher, 3.2
- CNC(=N)NCCC[C@H](NC(=O)[C@H](CC(C)C)NC(=O)NNC(=O)[C@H](Cc1ccccc1)NC(=O)[C@@H](NC(=O)[C@H](CC(N)=O)NC(=O)[C@@H]1NCCN1C(=O)[C@@H](Cc1ccc(O)cc1)NC(C)=O)[C@@H](C)O)C(=O)N[C@@H](Cc1c[nH]c2ccccc12)C(N)=O [Compound No. 734, Ac-D-Tyr-Izc-Asn-Thr-Phe-AzaGly-Leu-Arg(Me)-Trp-NH2] — higher, 2.3
- CNC(=N)NCCC[C@H](NC(=O)[C@H](CC(C)C)NC(=O)NNC(=O)[C@H](Cc1ccccc1)NC(=O)[C@@H](NC(=O)[C@H](CC(N)=O)NC(=O)[C@@H](CC(=O)O)NC(=O)[C@@H](Cc1ccc(O)cc1)NC(C)=O)[C@@H](C)O)C(=O)N[C@@H](Cc1c[nH]c2ccccc12)C(N)=O [Compound No. 735, Ac-D-Tyr-D-Asp-Asn-Thr-Phe-AzaGly-Leu-Arg(Me)-Trp-NH2] (Ac-[dY][dD]NTF[azaGly]L[Arg(Me)]W-NH2) — higher, 3.4
- CNC(=N)NCCC[C@H](NC(=O)[C@H](CC(C)C)NC(=O)NNC(=O)[C@H](Cc1ccccc1)NC(=O)[C@@H](NC(=O)[C@H](CC(N)=O)NC(=O)[C@@H](CN)NC(=O)[C@@H](Cc1ccc(O)cc1)NC(C)=O)[C@@H](C)O)C(=O)N[C@@H](Cc1c[nH]c2ccccc12)C(N)=O [Compound No. 736, Ac-D-Tyr-D-Dap-Asn-Thr-Phe-AzaGly-Leu-Arg(Me)-Trp-NH2] (Ac-[dY][dDap]NTF[azaGly]L[Arg(Me)]W-NH2) — higher, 2.4
- CNC(=N)NCCC[C@H](NC(=O)[C@H](CC(C)C)NC(=O)NNC(=O)[C@H](Cc1ccccc1)NC(=O)[C@@H](NC(=O)[C@H](CC(N)=O)NC(=O)[C@@H](CO)NC(=O)[C@@H](Cc1ccc(O)cc1)NC(C)=O)[C@@H](C)O)C(=O)N[C@@H](Cc1c[nH]c2ccccc12)C(N)=O [Compound No. 737, Ac-D-Tyr-D-Ser-Asn-Thr-Phe-AzaGly-Leu-Arg(Me)-Trp-NH2] (Ac-[dY][dS]NTF[azaGly]L[Arg(Me)]W-NH2) — higher, 3.0
